Reference: EP4470536A1, “COMPOUND FOR USE IN TREATING FIBRODYSPLASIA OSSIFICANS PROGRESSIVA (FOP)” (Queen's University At Kingston, priority 2023, dated 2024)

Legend:
[1] = Mapping a therapeutic window (ED50 versus MTD); assay type: in vivo; conditions: QD, own data compiled with mined literature data
Source text: For both palovarotene and compound 1 efficacy and toxicity were correlated to the pharmacokinetic parameters AUC (area under the curve), Cmax (maximum concentration detected following compound administration), and duration above EC50/IC50.This illustrated that efficacy was best predicted by duration above the EC50/IC50 (effective concentration for 50% response (in the case of palovarotene), or for 50% inhibition (in the case of compound 1)), whereas toxicity was best predicted by Cmax. […] For palovarotene, efficacy data from Example 7 and toxicity data from Example 8 above were compiled with mined data from the following publications: • Lindborg et al (2018). "Cartilage-derived retinoic acid-sensitive protein (CD-RAP): A stage-specific biomarker of heterotopic endochondral ossification (HEO) in fibrodysplasia ossificans progressiva (FOP)." Bone 109: 153-157. • Chakkalakal, S. A., et al. (2016). "Palovarotene Inhibits Heterotopic Ossification and Maintains Limb Mobility and Growth in Mice With the Human ACVR1(R206H) Fibrodysplasia Ossificans Progressiva (FOP) Mutation." J Bone Miner Res 31(9): 1666-1675. • Inubushi, T., et al. (2018). "Palovarotene Inhibits Osteochondroma Formation in a Mouse Model of Multiple Hereditary Exostoses." J Bone Miner Res 33(4): 658-666. • Lees-Shepard, J. B., et al. (2018). […] "Potent inhibition of heterotopic ossification by nuclear retinoic acid receptor-gamma agonists." Nat Med 17(4): 454-460.

ectopic bone formation = assay: Surgical mouse model of heterotopic ossification (rhBMP2-soaked collagen disk), micro-CT; assay type: in vivo, CD-1 mouse; conditions: Day 14
Description: Heterotopic ossification (HO) driven by Bone Morphogenetic Protein (BMP) signaling has been used as a surrogate model for testing the effectiveness of drugs for treating Fibrodysplasia Ossificans Progressiva (FOP) (see, for example, Shimono K., et al. (2011). Nat Med 17, 454-460.). Collagen disks of 1mm in diameter were punched from a thin collagen foam matrix (Avitene™ Ultrafoam™ Collagen Hemostat product #1050050 lot #WBDP0038, from BD, Franklin Lakes, NJ, USA). Disks were impregnated with 1µg total of recombinant human BMP-2 (GenScript, Piscataway, NJ, USA, catalog #Z02913, lot #P50031712) on the day of surgery (5µl of 200ng/µL BMP-2, reconstituted in 20mM acetic acid solution). The rhBMP2-soaked collagen disk was surgically implanted into a small pocket made in the left gastrocnemius muscle of a 6-8 week-old male CD-1 mouse. Beginning on the day following surgery, mice were administered varying doses of compound 1 by oral gavage once daily (QD) or twice daily (every 12h; BID) for 13 days. Doses administered were: vehicle (Corn oil, QD (5M) and BID (3M) dosing or 3% DMSO in Corn oil (2M)), compound 1 18 mg/kg BID, 18 mg/kg QD, 6 mg/kg BID, 4.5 mg/kg BID, and 2 mg/kg BID (6M per group). Palovarotene high and low doses were used as comparators (1.76 mg/kg (4M) and 0.88 mg/kg QD (6M)). The palovarotene high and low doses were selected based on a study for palovarotene (Inubushi, T., et al. (2018). "Palovarotene Inhibits Osteochondroma Formation in a Mouse Model of Multiple Hereditary Exostoses." J Bone Miner Res 33(4): 658-666.), using oral treatment of mice. The inventors also verified the dose selection based on pharmacokinetic (PK) data generated in-house for palovarotene IP (intraperitoneal) and PO (oral) treatment by using the doses for IP treatment from Lees-Shepard, J. B., et al. (2018).
At the study endpoint (Day 14: 16-30 hours after final compound treatment) left hindlimbs were removed and submitted to micro-CT (micro-computed tomography) imaging. Using this preclinical surgical model, the amount of resulting ectopic bone formation after 14 days was visualized for each of the treatment groups (Figure 6). The highly enhancing regions seen within the gastrocnemius muscle corresponded to the amount of ectopic bone formation generated at the site of collagen disk implantation, following 14 days of vehicle or drug treatment.
The hindlimbs obtained in Example 6 above were submitted to micro-CT imaging. CT images were acquired using a VECTor^4CT pre-clinical scanner (MILabs B.V., Utrecht, Netherlands) equipped with a cone beam X-ray CT system. Scans were carried out with an acceleration voltage of 50 kVp and an X-ray tube current of 430 µA in accurate focus mode to obtain 3600 projections over a 360° scan. With a 40 ms exposure time per step, the total scan procedure took about 5 minutes with an estimated radiation dose of 3077 mGy. CT images were consequently processed using MILabs reconstruction software implementing a voxel size of 20 µm and a Hann projection filter of 25 µm to generate 3-dimensional CT images. For quantification, CT images were converted to DICOM® files using PMOD 3.9 software (PMOD Technologies Ltd., Zurich, Switzerland) for rendering using RadiAnt DICOM Viewer 4.2 software (Medixant, Poznań, Poland). The region-of-interest for all hindlimbs, reconstructed from DICOM files, was defined by outlining sites of ectopic ossification. Analysis of total ectopic bone volume was conducted via automated processes using the AnalyzePro software with the Bone Microarchitecture Analysis (BMA) add-on (AnalyzeDirect, Overland Park, Kansas). This software generates bone volume measurements from the defined area, as described by Bouxsein et al (2010). Journal of Bone and Mineral Research, 25(7), 1468-1486. Using this preclinical surgical model, the ability of compound 1 to inhibit HO (percentage from vehicle), as compared to palovarotene, was assessed and is shown in Figure 7 and in Table 1 below.

Compound: CC1(C)CCC(C)(C)c2cc(Cn3cccn3)c(/C=C/c3ccc(C(=O)O)cc3)cc21 [Palovarotene, palovarotene, reference compound]
- ED50 ([1]; Mus musculus): 0.3 mg/kg
- MTD ([1]; mouse, in vivo): 0.285 mg/kg
- Mean bone volume (mm^3) (ectopic bone formation; 0.88mg/kg): 1.985 mm^3
- percent change in HO volume from vehicle mean (%) (ectopic bone formation; 0.88mg/kg): +2.5%
- Mean bone volume (mm^3) (ectopic bone formation; 1.76mg/kg QD): 0.615 mm^3
- percent change in HO volume from vehicle mean (%) (ectopic bone formation; 1.76mg/kg QD): -68.2%
